Reference: patent US20250198902A1, “METHOD OF ANALYSING THE MOTIONAL ACTIVITY OF PARTICLES” (RESISTELL AG, priority 2022, published 2025)

Test system: human colon cancer cell line SW480
Experiment: nanomotion drug sensitivity testing on cancer cells attached to microcantilever
Type: cell-based
Settings: SW480 cells in DMEM containing 10% FCS; 32 μM doxorubicin in Drug phase vs second Medium phase
Method: In particular, these figures show the variance of the deflection of a microcantilever with attached human colon cancer cell line SW480 measured in cell culture medium and subsequent exposure to inhibitory concentrations of the drug doxorubicin (FIG. 25a) and the variance for cells kept in cell culture medium (FIG. 25b). The doxorubicin susceptible SW480 was cultured under standard laboratory conditions (i.e., cell culture medium (Dulbecco's Modified Eagle Medium (DMEM) containing 10% heat-inactivated fetal calf serum (FCS), 37° C., 5% CO2) in cell culture flasks. In preparation of nanomotion experiments, cells were detached, collected in cell culture medium, and washed in DMEM containing 10% FCS. The cell suspension was used for the attachment to the cantilever, and all nanomotion measurements with the device were performed in DMEM containing 10% FCS. The colon cancer cells were attached to the cantilever. Three phases of signal recording were performed: (i) Blank phase, where the deflections of the bare cantilevers are measured, (ii) the Medium phase, where the deflections of the cantilever with attached SW480 were measured followed by (iii) the Drug phase, where the deflections of the cantilever with attached SW480 after exposure to a drug were recorded or a second Medium phase without doxorubicin. […]

Q: Which “variance of the nanomotion signal (cantilever deflection) after drug exposure” value does the source give for `COc1cccc2c1C(=O)c1c(O)c3c(c(O)c1C2=O)C[C@@](O)(C(=O)CO)C[C@@H]3O[C@H]1C[C@H](N)[C@H](O)[C@H](C)O1` [doxorubicin] here?
A: The value was “decrease in the variance after exposure to the drug is prominent”.
